Source: US8202886B2, “Small molecule E2F inhibitor” (H. Lee Moffitt Cancer Center and Research Institute, Inc., priority 2008, dated 2012)

What was measured:
[1] = test system: A375 cells; assay: MTS proliferation/viability over time; format: cell-based, human; conditions: 40 μM, 24-, 48- and 72-hrs
Method: To examine its effect on a range of commonly studied cell lines, the inventors utilized standard MTS assays to quantify cell viability following the therapeutic compound treatment. Cytotoxicity was determined using MTS assays, which were conducted using a CellTiter 96® AQueous One Cell Proliferation Assay Kit (Promega) following the published protocol. […] Plates were read at 490 nm following 4 hrs MTS reaction time. The concentration of drug which produced a 50% inhibition of growth (IC50) was calculated from linear regression analysis of the linear portion of the growth curves.

[2] = test system: breast cancer cell lines; assay: Western blots of Rb family members in breast cancer cell lines; format: cell-based; conditions: 40 micromolar, 24 hrs
[3] = test system: A375 melanocytes; assay: Three-dimensional skin model of A375 proliferation and invasion; format: cell-based, human; conditions: for activated caspase-3 positive cells (IHC): day 2, 5 or 8; for proliferation and invasion of melanocytes (S-100 IHC): day 12, 16 and 20
Method: Culture inserts of differentiated full-thickness 3D skin reconstruction model of A375 melanoma cells were purchased from MatTek (Ashland, Mass.). These were prepared by culturing mixed suspensions of normal human epidermal keratinocytes and A375 cells (1:10 ratio) on fibroblast contracted collagen gels and allowing differentiation for approximately one week in serum free media to form a 3D skin-like structure. These cultures were treated with 0, 40 or 80 μM 6474 and harvested after 0, 2, 5, 8, 12, 16 and 20 days.
In this model, the highly metastatic A375 melanocytes were mixed with normal human keratinocytes and seeded on fibroblast-contracted collagen gels. The mixed cells were then induced to differentiate in serum free media to form three-dimensional, highly differentiated, full thickness skin-like tissues. After seven days of differentiation the cells were then treated with 0 (DMSO carrier alone), 40 or 80 μM the therapeutic compound. The three-dimensional models were then cultured for 2, 5, 8, 12, 16 and 20 days. At the appointed time, 3D cultures were fixed in formalin, paraffin embedded, sectioned and either stained with H&E or processed for immunohistochemistry (1HC) using antibodies against S-100 to measure expression of a melanocyte marker, E2F4 to determine if it were down regulated as in 2D culture, activated caspase-3 to measure apoptosis and […] to measure the proliferative index.

[4] = test system: NCI60 cell lines; assay: NCI60 drug screen; format: cell-based; conditions: NCI standard concentration
From the text: FIG. 16: HLM006474 was submitted to the National Cancer Institutes Developmental Therapeutic Program NCI60 Drug Screening Program. […] Results are reported as mean growth percent less growth percent.
The therapeutic compound was submitted to the NCI60 drug screen.

[5] = test system: A375 cells; assay: Western blots of treated A375 cells
Method: Actin served as a loading control in these experiments and in those that follow.
To determine the activity of the therapeutic compound over time, A375 cells were treated with 40-μM of compound and examined at 0-, 3-, 6-, 9-, 12-, 18- and 24-hrs by EMSA and western (FIG. 11A).
To further examine the timing of the therapeutic compound-induced apoptosis, A375 cells were treated with 40-μM the therapeutic compound, harvested and fixed at various time periods.
To compare the mechanism of the therapeutic compound-induced apoptosis with that of several standard DNA damaging drugs, A375 cells were treated for 24-hrs with 40-μM the therapeutic compound, 10 μM cisplatin, 10 nM doxorubicin, 10 μM VP16 (etoposide) or with two-drug combinations.
Western blots utilized 50 μg of whole cell extract per lane as previously described. […] Detection of proteins was accomplished using horseradish-peroxidase-conjugated secondary antibodies and enhanced chemiluminescence (ECL) purchased from Amersham.

[6] = test system: MDA-MB-231; assay: Apo-BrdU TUNEL apoptosis assay, MDA-MB-231; format: cell-based, human; conditions: 40-μM, 24-hrs
From the text: (§1) To determine if treatment with the therapeutic compound contributes to apoptosis, Cells were detached from culture plates by trypsin treatment, washed twice with PBS, and fixed in 70% ethanol. Fixed cells were washed twice with PBS and treated with RNase A and propidium iodide (PI). PI staining was examined using a Becton-Dickinson FACScan instrument and Cell Quest software. TUNEL assay for apoptosis utilized a Pharmingen APO-BRDU Kit. MTS (3-(4,5-dimethylthiazol-2-yl)-5-(3-carboxymethoxyphenyl)-2-(4-sulfophenyl)-2H-tetrazolium, inner salt) assays were conducted using a CellTiter 96® AQueous One Cell Proliferation Assay Kit (Promega).
(§2) A375, MDA-MB-231 (231), MCF-7 and human foreskin fibroblasts (HFF) cells were treated with 40-μM of the therapeutic compound for 24-hrs and subjected to a FACS based terminal deoxynucleotidyl transferase (TUNEL) assay (Apo-BrdU Kit from BD Pharmingen).

[7] = test system: NSCLC lines; assay: Western blots of cell cycle proteins in NSCLC lines; format: cell-based; conditions: every cell line treated, 40 micromolar, 24 hrs
Method: The indicated NSCLC lines were treated with 40 micromolar the therapeutic compound and subjected western blotting 24 hrs later using the indicated antibodies.

[8] = test system: 8226-s, 8226-dox40 and 8226-MR20; assay: PARP cleavage western in drug sensitive and resistant 8226 lines; format: cell-based, human; conditions: 24 hours; 10 μM cisplatin or 10, 20 or 40 μM HLM006474
Method: (§3) Cells were collected 24 hours post drug exposure and extracts subjected to western blotting using antibodies to the indicated proteins. Cleavage of PARP indicates apoptosis.

[9] = test system: 8226-dox40; assay: MTS viability assay, 8226-dox40; format: cell-based; conditions: Homo sapiens
Method: as §3
(§4) To examine its effect on a range of commonly studied cell lines, the inventors utilized standard MTS assays to quantify cell viability following the therapeutic compound treatment. Cytotoxicity was determined using MTS assays, which were conducted using a CellTiter 96® AQueous One Cell Proliferation Assay Kit (Promega) following the published protocol. Cells in 0.1 ml volume were plated in triplicate into 96-well plates, 1×10^4 cells/well. the therapeutic compound was added and after 24 hours of incubation at 37° C., 20 μl of MTS dye was added to each well. Plates were read at 490 nm following 4 hrs MTS reaction time. The concentration of drug which produced a 50% inhibition of growth (IC50) was calculated from linear regression analysis of the linear portion of the growth curves.

[10] = test system: 8226-s; assay: MTS viability assay, 8226-s; format: cell-based; conditions: Homo sapiens; 8226-s parental
Method: as §3, §4

[11] = test system: E2F complexes; assay: E2F EMSA on extracts of treated breast cancer cell lines; format: cell-based; conditions: 40 μM
Method: Several breast cancer cell lines were treated with 40 μM HLM006474 and extracts subjected to E2F EMSA assay.
Quantitative EMSA assays were performed in triplicate.

[12] = test system: MCF-7; assay: Apo-BrdU TUNEL apoptosis assay, MCF-7; format: cell-based, human; conditions: 40-μM, 24-hrs
From the text: as §1, §2

[13] = test system: A549; assay: Western blots of treated A549 cells; format: cell-based
Method: In order to further examine the mechanism of action of the therapeutic compound four lung cancer cell lines were treated with various concentrations of drug and western blots performed on cell extracts after 24 hr.

[14] = test system: 231 cells; assay: RNase protection assay, 231; format: cell-based, human
Method: The indicated breast cancer lines were treated with 40 micromolar the therapeutic compound and subjected RNAse protection assay 24 hrs later using the indicated probes.
An RNase protection assay was performed to determine if downregulation of the Rb family members at the level of mRNA could account for the downregulation of the proteins. Two breast cancer cell lines were examined at 0, 3, 6, 9, 18 and 24 hr following the therapeutic compound treatment (FIG. 21).

[15] = 40 μM, listed as the therapeutic compound

CCOc1ccc(C(Nc2ccccn2)c2ccc3ccc(C)nc3c2O)cc1C (stereo not drawn) [HLM006474]
cellular proliferation/viability (MTS) [1]: significantly affected | Rb and p107 proteins (western) [2]: dramatically down regulated | effects on the other cells (fibroblasts and keratinocytes) of the 3D tissue [3]: no obvious deleterious effects | E2F4 levels (IHC) ([3]; 40 μM): clearly reduced | Ki-67 staining ([3]; 40 μM, day 2, 5 and 8): decrease in the number of proliferative cells | activated caspase-3 positive cells (IHC) ([3]; 40 μM): no detectable increase in apoptotic cells | activated caspase-3 positive cells (IHC) [3, 15]: no significant difference | proliferation and invasion of melanocytes (S-100 IHC) ([3]; 40 μM): very rare | proliferation and invasion of melanocytes (S-100 IHC) [3, 15]: significantly inhibited the proliferation and subsequent invasion | melanocyte proliferation (H&E) ([3]; 80 μM): essentially no melanocyte proliferation | growth inhibition in NCI60 cell lines [4]: significantly growth inhibited | expression of E2F4 or E2F1 (western) ([5]; 9-hrs of treatment): does not significantly affect | Mcl-1 (western) ([5]; 24-hrs, 40-μM): may slightly repress Mcl-1 | PARP cleavage (western) ([5]; 24-hrs, 40-μM): potent inducer of PARP cleavage | time at which PARP cleavage indicates significant apoptosis ([5]; 40-μM): ≤ 12 h | time at which decrease in total E2F4 protein became apparent ([5]; 40-μM): up to 24 hrs | apoptosis (TUNEL) [6]: dramatic induction of apoptosis | Rb (western) [7]: down (at least modestly) | PARP cleavage (apoptosis) in sensitive versus resistant lines [8]: very similar | IC50 [9]: 31 ± 4 µM | IC50 [10]: 36 ± 6 µM | DNA-binding of all E2F complexes (EMSA) [11]: inhibited | apoptosis (TUNEL) [12]: did not induce an obvious increase in apoptosis | Mcl-1 (western) ([13]; A549, 40-μM): downregulation of Mcl-1 | sensitivity (downregulation of E2F1 and E2F4, PARP cleavage) ([13]; A549, various concentrations, 24 hr): limited sensitivity | Rb at the mRNA level [14]: no significant change | p21 mRNA [14]: upregulated
